Test: xn = mol fraction of the nth substance listed

COCCOCCO + CCOC(=O)OCC
298.15 K, 101.33 kPa
Settings | viscosity [mPa·s]
x1 = 0.0177 | 0.765
x1 = 0.0409 | 0.784
x1 = 0.0525 | 0.794
x1 = 0.0688 | 0.809
x1 = 0.0808 | 0.819
x1 = 0.0974 | 0.834
x1 = 0.1182 | 0.856
x1 = 0.1376 | 0.878
x1 = 0.1665 | 0.911
x1 = 0.1973 | 0.949
x1 = 0.2247 | 0.98
x1 = 0.26 | 0.984
x1 = 0.3011 | 1.095
x1 = 0.3362 | 1.148
x1 = 0.4104 | 1.282
x1 = 0.438 | 1.337
x1 = 0.4644 | 1.394
x1 = 0.4835 | 1.436
x1 = 0.5151 | 1.511
x1 = 0.5529 | 1.61
x1 = 0.5929 | 1.721
x1 = 0.6445 | 1.874
x1 = 0.6774 | 1.978
x1 = 0.7326 | 2.167
x1 = 0.7642 | 2.295
x1 = 0.8034 | 2.456
x1 = 0.8312 | 2.576
x1 = 0.861 | 2.709
x1 = 0.8942 | 2.87
x1 = 0.9328 | 3.065
x1 = 0.9487 | 3.15
x1 = 0.9554 | 3.189
x1 = 0.9613 | 3.221

Cc1ccc(Cl)cc1 + CCOC(=O)c1ccccc1
viscosity [mPa·s], 101 kPa
Settings | 303.15 K | 313.15 K
x2 = 0.0536 | 0.745 | 0.65
x2 = 0.1068 | 0.729 | 0.632
x2 = 0.1858 | 0.73 | 0.629
x2 = 0.2507 | 0.751 | 0.644
x2 = 0.3392 | 0.806 | 0.686
x2 = 0.4157 | 0.876 | 0.739
x2 = 0.4913 | 0.959 | 0.801
x2 = 0.592 | 1.092 | 0.904
x2 = 0.6657 | 1.201 | 0.991
x2 = 0.762 | 1.359 | 1.109
x2 = 0.8333 | 1.484 | 1.206
x2 = 0.907 | – | 1.315
x2 = 0.9071 | 1.623 | –
x2 = 0.9524 | 1.713 | 1.385

COCCOCCO + CCOC(C)(C)C
viscosity [mPa·s], 101 kPa
Settings | 293.15 K | 298.15 K | 303.15 K
x2 = 0.0501 | 3.519 | 3.231 | 2.865
x2 = 0.1 | 3.158 | 2.906 | 2.589
x2 = 0.1459 | 2.847 | 2.627 | 2.351
x2 = 0.1998 | 2.518 | 2.328 | 2.097
x2 = 0.2556 | 2.218 | 2.06 | 1.862
x2 = 0.3031 | 1.991 | 1.855 | 1.683
x2 = 0.3521 | 1.784 | 1.669 | 1.52
x2 = 0.4004 | 1.605 | 1.506 | 1.377
x2 = 0.4511 | 1.438 | 1.355 | 1.244
x2 = 0.4998 | 1.299 | 1.227 | 1.13
x2 = 0.5628 | 1.142 | 1.082 | 1.001
x2 = 0.5997 | 1.062 | 1.007 | 0.934
x2 = 0.6621 | 0.942 | 0.894 | 0.833
x2 = 0.6997 | 0.879 | 0.834 | 0.779
x2 = 0.7411 | 0.816 | 0.773 | 0.725
x2 = 0.7995 | 0.736 | 0.697 | 0.657
x2 = 0.8401 | 0.687 | 0.651 | 0.616
x2 = 0.8998 | 0.623 | 0.591 | 0.56
x2 = 0.9498 | 0.575 | 0.545 | 0.518

From the CheMixHub viscosity set
